{
  "source": "ChEMBL document CHEMBL5579833",
  "about": "“The U.S. FDA approved cardiovascular drugs from 2011 to 2023: A medicinal chemistry perspective” (Eur J Med Chem, 2024)",
  "key": {"[1]": {"tested_on": "Platelet", "test": "Inhibition of thrombin-induced human platelet aggregation"}, "[2]": {"molecular_target": "P2Y purinoceptor 12 (Homo sapiens, UniProt Q9H244)", "sequence (Q9H244 whole entry)": "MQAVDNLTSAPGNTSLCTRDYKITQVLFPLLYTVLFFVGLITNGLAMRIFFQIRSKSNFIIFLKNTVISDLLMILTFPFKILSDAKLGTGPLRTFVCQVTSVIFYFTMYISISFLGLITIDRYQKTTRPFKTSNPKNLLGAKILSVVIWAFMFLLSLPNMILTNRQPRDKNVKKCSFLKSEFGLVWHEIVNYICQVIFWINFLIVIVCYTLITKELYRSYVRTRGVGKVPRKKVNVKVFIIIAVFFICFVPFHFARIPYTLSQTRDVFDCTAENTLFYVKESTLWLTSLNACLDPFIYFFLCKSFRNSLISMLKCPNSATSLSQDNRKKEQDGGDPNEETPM", "test": "Binding affinity to human P2Y12 assessed as inhibition constant"}, "[3]": {"test": "Elimination half life in cynomologus monkey", "details": "cynomolgus monkey, in vivo"}, "[4]": {"test": "Plasma protein binding in cynomolgus monkey"}, "[5]": {"test": "Inhibition of ApoB lipoprotein secretion in human HepG2 cells", "assay_type": "functional", "details": "read-out: ED50 (the source's name)"}, "[6]": {"test": "Activation of Myosin S1 ATPase activity in bovine Cardio-myofibril"}, "[7]": {"molecular_target": "T1, Type-2 angiotensin II receptor (Homo sapiens, UniProt P50052)", "T1 sequence (P50052 whole entry)": "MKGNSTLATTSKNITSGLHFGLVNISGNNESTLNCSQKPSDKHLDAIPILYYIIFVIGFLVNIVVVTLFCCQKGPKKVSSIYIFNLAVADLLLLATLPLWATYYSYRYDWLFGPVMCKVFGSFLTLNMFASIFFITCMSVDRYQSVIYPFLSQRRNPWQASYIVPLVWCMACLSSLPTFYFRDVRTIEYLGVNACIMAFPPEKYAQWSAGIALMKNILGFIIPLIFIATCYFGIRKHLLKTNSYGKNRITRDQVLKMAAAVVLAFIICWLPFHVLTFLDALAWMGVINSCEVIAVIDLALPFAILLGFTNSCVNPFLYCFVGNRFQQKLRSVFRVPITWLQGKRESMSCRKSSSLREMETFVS", "test": "Inhibition of Angiotensin-2 receptor (unknown origin)"}, "[8]": {"species_on_record": "Rattus norvegicus", "test": "Antithrombotic activity in fibrin-rich platelet-poor rat thrombin"}},
  "note": "pEC50, pIC50, pKi: −log10 of the molar value. Where a name gives a salt, the structure may show the parent alone.",
  "data": [
    {"compound": "CCOC(=O)N[C@@H]1CC[C@@H]2[C@@H](C1)C[C@H]1C(=O)O[C@H](C)[C@H]1[C@H]2/C=C/c1ccc(-c2cccc(F)c2)cn1", "note": "[VORAPAXAR]", "values": [
      {"measurement": "pIC50", "setting": "[1]", "value": 7.33}
    ]},
    {"compound": "CCCSc1nc(N[C@@H]2C[C@H]2c2ccc(F)c(F)c2)c2nnn([C@@H]3C[C@H](OCCO)[C@@H](O)[C@H]3O)c2n1", "note": "[TICAGRELOR]", "values": [
      {"measurement": "pKi", "setting": "[2]", "value": 8.37}
    ]},
    {"compound": "CCCCC(=O)N(Cc1ccc(-c2ccccc2-c2nnn[nH]2)cc1)[C@H](C(=O)O)C(C)C.CCOC(=O)[C@H](C)C[C@@H](Cc1ccc(-c2ccccc2)cc1)NC(=O)CCC(=O)O", "values": [
      {"measurement": "half-life", "setting": "[3]", "value": 4.6, "unit": "h"},
      {"measurement": "fraction unbound", "setting": "[4]", "value": 0.06}
    ]},
    {"compound": "O=C(NC1CCN(CCCCC2(C(=O)NCC(F)(F)F)c3ccccc3-c3ccccc32)CC1)c1ccccc1-c1ccc(C(F)(F)F)cc1", "note": "[LOMITAPIDE MESYLATE]", "values": [
      {"measurement": "pEC50", "setting": "[5]", "value": 9.10}
    ]},
    {"compound": "CC(C)n1c(=O)cc(N[C@@H](C)c2ccccc2)[nH]c1=O", "values": [
      {"measurement": "pIC50", "setting": "[6]", "value": 6.52}
    ]},
    {"compound": "CCOc1nc2cccc(C(=O)OCc3oc(=O)oc3C)c2n1Cc1ccc(-c2ccccc2-c2noc(=O)[nH]2)cc1", "note": "[AZILSARTAN MEDOXOMIL]", "values": [
      {"measurement": "pIC50", "setting": "[7]", "value": 8.59}
    ]},
    {"compound": "O=C(NC[C@H]1CN(c2ccc(N3CCOCC3=O)cc2)C(=O)O1)c1ccc(Cl)s1", "note": "[RIVAROXABAN]", "values": [
      {"measurement": "ED50", "setting": "[8]", "value": 0.1, "unit": "mg/kg"}
    ]}
  ]
}
